Measurements: patent publication US6586419B1, “Phototherapeutic inactivation of ocular viruses” (PDT Systems, Inc., priority 1997, dated 2003)
Values joined by “and” are separate entries in the source; they are usually repeats but may differ in a detail not shown here. Equal values may be shown once.

Legend:
[1] = system: cell associated CMV; assay: Inactivation of cell-associated CMV by SnET2 and light (viral infectivity/titer); format: cell-based, cytomegalovirus; conditions: for viral infectivity (viral titer): LIGHT (52 mW/cm^2, 1.56 J/cm^2)
Description: To inactivate virus from a frozen viral stock with SnET2 and light doses, the following procedure was employed. Following light treatment, undiluted virus and drug/virus mixture were diluted 10-fold up to 1:10^6. All dilutions were used to infect sub-confluent, heat-shocked cultures of a cell line plated in tissue cultures of 24 well plate in triplicates. The infected cultures were treated with antibody against the major viral […] protein. An alkaline phosphatase labeled antibody to mouse IgG was then added followed by the alkaline phosphatase substrate. This produced a colored reaction which can be monitored microscopically in positive wells. The infected cells were characterized by a dark purple coloration in the nucleus. Viral titer or viral infectivity was determined by the last viral concentration that gave at least one infected cell per well.

[2] = system: cell-associated HSV; assay: Inactivation of cell-associated HSV by SnET2 and light (viral infectivity/titer); format: cell-based, Herpes simplex virus; conditions: for viral infectivity (viral titer): LIGHT (52 mW/cm^2, 1.56 J/cm^2)
[3] = system: cell-free Herpes simplex virus (HSV); assay: Inactivation of cell-free HSV by SnET2 and 660 nm light (viral infectivity/titer); format: cell-based
Description: The infectivity of cell-free HSV exposed to SnET2 doses ranging from 10 μg/mL to 0.1 μg/mL and 660 nm light doses of 1.56 J/cm^2 are shown in Table 1.
The infectivity of cell-free HSV exposed to 0.1 μg/mL SnET2 and light doses ranging from 1.56 J/cm^2 to 25 J/cm^2 are shown below in FIG. 2.
To inactivate virus from a frozen viral stock with SnET2 and light doses, the following procedure was employed. Following light treatment, undiluted virus and drug/virus mixture were diluted 10-fold up to 1:10^6. All dilutions were used to infect sub-confluent, heat-shocked cultures of a cell line plated in tissue cultures of 24 well plate in triplicates. The infected cultures were treated with antibody against the major viral capside protein. An alkaline phosphatase labeled antibody to mouse IgG was then added followed by the alkaline phosphatase substrate. This produced a colored reaction which can be monitored microscopically in positive wells. The infected cells were characterized by a dark purple coloration in the nucleus. Viral titer or viral infectivity was determined by the last viral concentration that gave at least one infected cell per well.

[4] = daily systemic intravenous administration; cited from earlier work
[5] = system: cytomegalovirus (CMV) retinitis; conditions: AIDS patients with CMV retinitis on anti-HIV and anti-CMV therapy; cited from earlier work

CCOC(=O)C1=Cc2c3nc(cc4nc(cc5[n-]c(cc6[n-]c2c(C)c6CC)c(C)c5CC)C(C)=C4CC)[C@@H](C)[C@]13CC.[Cl-].[Cl-].[Sn] (racemic) [SnET2, tin ethyl etiopurpurin]
viral infectivity (viral titer) ([1]; 1 μg/mL, CMV 1:2): >10^3
viral infectivity (viral titer) ([1]; 1 μg/mL, CMV 1:10, two values given): < 10^2 and 10^4
viral infectivity (viral titer) ([1]; 5 μg/mL, CMV 1:2): >10^3
viral infectivity (viral titer) ([1]; 5 μg/mL, CMV 1:10, two values given): < 10^2 and 10^3
inactivation of virus in vitro (summary) ([1]; SnET2 and light, cell associated CMV): complete inactivation
inactivation (complete inactivation) ([1]; drug dose 1-10 μg/mL, light dose 15.6 J/cm^2): 2-5 log10
viral infectivity (viral titer) ([2]; 1 μg/mL): 10^3
viral infectivity (viral titer) ([2]; 5 μg/mL): <10^3
inactivation of virus in vitro (summary) ([2]; SnET2 and light, cell associated HSV): complete inactivation
viral infectivity (viral titer) ([3]; 0.1 μg/mL, 660 nm LIGHT (26 mW/cm^2, 1.56 J/cm^2)): 10^3
viral infectivity (viral titer) ([3]; 0.1 μg/mL, DARK): 10^6
viral infectivity (viral titer), light dose response ([3]; 0.1 μg/mL, DARK): 10^6
viral infectivity (viral titer), light dose response ([3]; 0.1 μg/mL, Light 26 mW/cm^2, 1.56 J/cm^2): 10^3
viral infectivity (viral titer), light dose response ([3]; 0.1 μg/mL, Light 26 mW/cm^2, 3.12 J/cm^2): <10^3
viral infectivity (viral titer), light dose response ([3]; 0.1 μg/mL, Light 26 mW/cm^2, 6.24 J/cm^2): <10^2
viral infectivity (viral titer), light dose response ([3]; 0.1 μg/mL, Light 26 mW/cm^2, 12.5 J/cm^2): <10^1
viral infectivity (viral titer), light dose response ([3]; 0.1 μg/mL, Light 26 mW/cm^2, 25 J/cm^2): <10^1
viral infectivity (viral titer) ([3]; 1 μg/mL, 660 nm LIGHT (26 mW/cm^2, 1.56 J/cm^2)): <10^1
viral infectivity (viral titer) ([3]; 1 μg/mL, DARK): 10^6
dark toxicity ([3]; 10 μg/mL to 0.1 μg/mL, no light): No dark toxicity was observed
viral infectivity (viral titer) ([3]; 10 μg/mL, 660 nm LIGHT (26 mW/cm^2, 1.56 J/cm^2)): <10^1
viral infectivity (viral titer) ([3]; 10 μg/mL, DARK): 10^6
inactivation of virus in vitro (summary) ([3]; SnET2 and light, cell-free HSV): complete inactivation
inactivation of the virus (partial response) ([3]; drug dose 0.1 μg/mL, light dose 1.56 J/cm^2, 660 nm): 3 log10
inactivation of the virus (complete inactivation) ([3]; drug dose 1 μg/mL, light dose 1.56 J/cm^2, 660 nm): > 5 log10
inactivation of the virus (complete inactivation) ([3]; drug dose 10 μg/mL, light dose 1.56 J/cm^2, 660 nm): > 5 log10

Nc1nc(O)c2ncn(COC(CO)CO)c2n1 [ganciclovir]
systemic toxicity [4]: suppressing the bone marrow
median survival [5]: 8.5 months

Nc1nc2c(ncn2COCCO)c(=O)[nH]1 [anywhere, acyclovir]
systemic toxicity [4]: causing renal toxicity

O=C(O)P(=O)(O)O [foscarnet]
systemic toxicity [4]: causing renal toxicity
median survival [5]: 12.6 months
